Results as given in patent US6796312B2, “Process and apparatus for the removal of toxic components of tobacco smoke and the standardization of the health hazards related to those components” (priority 2001, dated 2004).
“And” between values parts separate entries of the source, which are not always exact repeats. Equal values may be shown once. Read-outs that look alike come from different tables or passages of the source.

Columns and labels:
[1] = target: T1, myeloperoxidase (Homo sapiens, UniProt P05164); experiment: NADH2-NDGA-myeloperoxidase spectrophotometric assay of sputum / oral fluid-cell harvest supernatant extracts; assay type: biochemical
T1 construct: Homogenates were centrifuged at 1,300×g for ten (10) minutes and the supernatant extracts were kept during the course of analysis; from tissue; host or cells: human sputum / oral fluid-cell harvest (neutrophil-rich) homogenate supernatants
T1 sequence (P05164 49-745): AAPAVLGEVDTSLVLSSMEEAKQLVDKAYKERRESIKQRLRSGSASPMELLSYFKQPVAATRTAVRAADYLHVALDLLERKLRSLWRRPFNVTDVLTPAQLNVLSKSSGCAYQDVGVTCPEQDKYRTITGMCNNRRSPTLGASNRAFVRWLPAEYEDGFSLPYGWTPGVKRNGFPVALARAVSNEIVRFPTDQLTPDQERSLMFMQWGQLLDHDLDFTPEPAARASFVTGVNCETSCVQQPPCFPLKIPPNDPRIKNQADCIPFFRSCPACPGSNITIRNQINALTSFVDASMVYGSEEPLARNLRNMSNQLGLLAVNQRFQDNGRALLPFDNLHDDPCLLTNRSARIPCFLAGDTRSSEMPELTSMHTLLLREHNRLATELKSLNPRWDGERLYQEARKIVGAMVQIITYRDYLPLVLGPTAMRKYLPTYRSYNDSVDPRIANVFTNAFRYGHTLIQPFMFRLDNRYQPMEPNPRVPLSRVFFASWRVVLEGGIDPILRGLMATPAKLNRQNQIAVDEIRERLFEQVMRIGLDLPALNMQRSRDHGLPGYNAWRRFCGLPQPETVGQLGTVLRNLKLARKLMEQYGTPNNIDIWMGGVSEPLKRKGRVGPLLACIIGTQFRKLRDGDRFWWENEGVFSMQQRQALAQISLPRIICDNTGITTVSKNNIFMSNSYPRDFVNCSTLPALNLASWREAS
Description: Aliquots of fresh human oral fluid-cell harvests as exemplified above or fresh human sputum collected by the donors over a twenty-four (24) hour period were disrupted employing either Ten Broeck glass homogenizers or the Virtis homogenizer. Homogenates were centrifuged at 1,300×g for ten (10) minutes and the supernatant extracts were kept during the course of analysis at zero degrees centigrade (0° C.). Other reactants were incubated at thirty-five degrees centigrade (35° C.). Reduced nicotinamide-adenine dinucleotide oxidase and norhydroguaiaretic acid-myeloperoxidase activities were followed at 340 mμ or (nm) employing the Beckman Model DU Spectrophotometer temperature regulated at thirty-five degrees centigrade (35° C.). All specific reactions were run as duplicate assays.
Although this oxidation was very small under the conditions of experiment, an interaction correction factor was determined and applied to all reduced nicotinamide-adenine dinucleotide-nordihydroguaiaretic acid-mycloperoxidase assay reactions.
The velocity constants for the myeloperoxidase reactions behaved and were computed in accord with zero order reaction kinetics. […] In most instances, the activities followed first order reaction kinetics for a short interval and then ceased abruptly. The latter may be due to the presence or accumulation of variable concentrations of an unidentified inhibitor or inhibitors in the supernatants. Since in all cases the oxidase activities were very slow relative to the myeloperoxidase activities, the difference in optical density over the course of the reactions (up to ten (10) minutes) for the oxidase system were computed in the same manner as the data for the rapid myeloperoxidase system. Thus, all velocity constants were expressed in μ Moles of reduced nicotinamide-adenine dinucleotide oxidized per minute per ml. of oral fluid-cell harvest or sputum. The small oxidase activities were applied as a correction factor in the computation of all myeloperoxidase velocity constants.
The pH optimum of the myeloperoxidase system was determined. When fresh nordihydroguaiaretic acid solutions were prepared and interaction rates with reduced nicotinamide-adenine dinucleotide were subtracted as controls from oral lavage and sputum supernatant myeloperoxidase activities, the net velocity constants were zero (0). On the other hand, five (5) hour old nordihydroguaiaretic acid solutions yielded optimal activities at approximately pH 7.4. Subsequent experiments uniformly were carried out at pH 7.0 using five (5) hour old solutions to minimize the rates of the auto oxidation of nordihydroguaiaretic acid and oxidation of reduced nicotinamide-adenine dinucleotide by nordihydroguaiaretic acid when employing alkaline pH's.

[2] = tested on: succinic oxidase and reduced nicotinamide-adenine dinucleotide oxidase; experiment: Respiratory chain of mouse heart homogenates; assay type: biochemical; settings: under certain conditions, Eichel unpublished
[3] = tested on: turnip peroxidase; settings: 2.7×10^−4 Molar (80 ppm); cited from earlier work
[4] = target: T2, yeast alcohol dehydrogenase (Saccharomyces cerevisiae, UniProt P00330); settings: 2.7×10^−4 Molar (80 ppm); cited from earlier work
T2 sequence (P00330 1-348): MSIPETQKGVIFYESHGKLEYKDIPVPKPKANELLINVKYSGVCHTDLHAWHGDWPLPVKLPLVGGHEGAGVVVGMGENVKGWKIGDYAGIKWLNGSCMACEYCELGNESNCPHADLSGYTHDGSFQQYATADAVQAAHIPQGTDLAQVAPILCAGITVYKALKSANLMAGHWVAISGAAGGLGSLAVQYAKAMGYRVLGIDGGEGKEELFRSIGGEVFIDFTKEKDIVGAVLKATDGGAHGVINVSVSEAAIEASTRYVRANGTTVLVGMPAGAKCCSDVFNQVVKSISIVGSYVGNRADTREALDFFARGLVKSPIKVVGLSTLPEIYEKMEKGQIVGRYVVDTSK

[5] = target: squash ascorbic acid oxidase (Cucurbita pepo var. melopepo, UniProt P37064); settings: cited from earlier work
[6] = tested on: rat liver cyclophorase; settings: 2.7×10^−3 Molar (160 ppm); listed as nordihydroguaiaretic acid; cited from earlier work
[7] = target: T3, pig heart D-amino acid oxidase (Sus scrofa, UniProt P00371); settings: 2.7×10^−3 Molar (160 ppm); cited from earlier work
T3 construct: host or cells: pig heart (so in the source)

[8] = target: jack bean urease (Canavalia ensiformis, UniProt P07374); settings: cited from earlier work
[9] = tested on: plant lipoxidase; settings: cited from earlier work
[10] = tested on: caries; settings: hamsters in vivo; cited from earlier work
[11] = tested on: human whole saliva; settings: low concentrations; cited from earlier work
[12] = tested on: Ehrlich carcinoma, Li210 mouse leukemia and other cancer cells; settings: in vivo and in vitro; cited from earlier work
[13] = cited from earlier work

Sequence of jack bean urease (P07374 whole entry, looked up): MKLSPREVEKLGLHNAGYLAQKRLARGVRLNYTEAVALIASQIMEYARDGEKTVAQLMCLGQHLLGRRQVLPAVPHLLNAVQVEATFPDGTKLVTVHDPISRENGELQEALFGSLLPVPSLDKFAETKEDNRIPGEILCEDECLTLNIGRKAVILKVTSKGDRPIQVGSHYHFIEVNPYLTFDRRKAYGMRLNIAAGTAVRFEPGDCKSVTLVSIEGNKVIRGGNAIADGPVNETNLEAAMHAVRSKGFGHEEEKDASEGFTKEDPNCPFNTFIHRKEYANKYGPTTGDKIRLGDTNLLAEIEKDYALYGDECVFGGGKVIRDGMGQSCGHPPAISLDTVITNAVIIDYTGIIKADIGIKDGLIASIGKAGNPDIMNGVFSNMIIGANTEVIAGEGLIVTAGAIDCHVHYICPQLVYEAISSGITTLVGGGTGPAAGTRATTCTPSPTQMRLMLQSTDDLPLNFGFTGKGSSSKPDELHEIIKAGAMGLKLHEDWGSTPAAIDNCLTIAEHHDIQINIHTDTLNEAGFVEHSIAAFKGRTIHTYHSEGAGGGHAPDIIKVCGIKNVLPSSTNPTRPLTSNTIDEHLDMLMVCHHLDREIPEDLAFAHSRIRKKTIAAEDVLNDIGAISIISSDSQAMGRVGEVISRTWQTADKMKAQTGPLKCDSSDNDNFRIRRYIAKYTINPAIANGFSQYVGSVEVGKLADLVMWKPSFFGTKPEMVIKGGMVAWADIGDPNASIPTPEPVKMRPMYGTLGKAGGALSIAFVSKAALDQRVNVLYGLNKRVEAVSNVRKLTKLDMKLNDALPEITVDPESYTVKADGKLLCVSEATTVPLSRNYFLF
T3 sequence (P00371 whole entry): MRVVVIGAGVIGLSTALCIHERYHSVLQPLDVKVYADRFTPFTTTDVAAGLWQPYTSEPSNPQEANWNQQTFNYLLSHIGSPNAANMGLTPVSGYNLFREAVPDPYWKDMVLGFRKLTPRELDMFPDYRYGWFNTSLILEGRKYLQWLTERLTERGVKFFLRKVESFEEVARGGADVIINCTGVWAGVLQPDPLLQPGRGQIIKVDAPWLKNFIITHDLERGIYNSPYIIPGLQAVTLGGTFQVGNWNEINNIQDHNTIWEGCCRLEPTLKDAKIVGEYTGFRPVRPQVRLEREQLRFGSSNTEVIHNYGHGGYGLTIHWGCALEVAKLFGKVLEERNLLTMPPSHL
Sequence of squash ascorbic acid oxidase (P37064 whole entry): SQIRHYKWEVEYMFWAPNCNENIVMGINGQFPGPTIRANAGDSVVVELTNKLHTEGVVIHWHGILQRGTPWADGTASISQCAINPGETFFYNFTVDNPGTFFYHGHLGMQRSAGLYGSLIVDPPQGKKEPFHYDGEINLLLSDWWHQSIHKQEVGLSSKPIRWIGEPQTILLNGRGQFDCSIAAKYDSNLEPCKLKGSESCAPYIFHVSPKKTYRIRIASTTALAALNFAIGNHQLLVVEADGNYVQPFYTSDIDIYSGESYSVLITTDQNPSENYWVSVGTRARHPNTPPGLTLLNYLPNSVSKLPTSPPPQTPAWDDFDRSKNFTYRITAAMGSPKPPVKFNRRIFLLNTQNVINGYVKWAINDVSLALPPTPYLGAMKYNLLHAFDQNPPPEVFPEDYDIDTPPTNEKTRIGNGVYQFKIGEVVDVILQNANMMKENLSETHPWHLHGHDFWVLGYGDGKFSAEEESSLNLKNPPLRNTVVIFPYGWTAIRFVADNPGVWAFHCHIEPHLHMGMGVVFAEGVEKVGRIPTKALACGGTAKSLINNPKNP

In the case of CC(Cc1ccc(O)c(O)c1)C(C)Cc1ccc(O)c(O)c1 (stereo not drawn) [NDGA, beta, gamma-dimethyl-alpha, ortho-bis (3,4 dihydroxiphenyl) butane], the NADH2-NDGA-MPO velocity constant ([1]; NDGA solution aged 0 minutes) is reported as 0.00 μ Moles NADH2 oxidized per minute per ml. of sputum supernatant, the NADH2-NDGA-MPO velocity constant ([1]; NDGA solution aged 60 minutes) is reported as 8.97 μ Moles NADH2 oxidized per minute per ml. of sputum supernatant and the NADH2-NDGA-MPO velocity constant ([1]; NDGA solution aged 120 minutes) is reported as 14.43 μ Moles NADH2 oxidized per minute per ml. of sputum supernatant. The NADH2-NDGA-MPO velocity constant ([1]; NDGA solution aged 180 minutes) was 27.65 μ Moles NADH2 oxidized per minute per ml. of sputum supernatant, the NADH2-NDGA-MPO velocity constant ([1]; NDGA solution aged 240 minutes) was 28.89 μ Moles NADH2 oxidized per minute per ml. of sputum supernatant and the NADH2-NDGA-MPO velocity constant ([1]; NDGA solution aged 337 minutes) was 32.40 μ Moles NADH2 oxidized per minute per ml. of sputum supernatant. The NADH2-NDGA-MPO velocity constant ([1]; NDGA solution aged 397 minutes) was 41.39 μ Moles NADH2 oxidized per minute per ml. of sputum supernatant, the NADH2-NDGA-MPO velocity constant ([1]; NDGA solution aged 440 minutes) was 44.21 μ Moles NADH2 oxidized per minute per ml. of sputum supernatant and the NADH2-NDGA-MPO velocity constant ([1]; NDGA solution aged 485 minutes) was 46.85 μ Moles NADH2 oxidized per minute per ml. of sputum supernatant. For the same compound, the “inhibition of the respiratory chain (succinic oxidase, reduced nicotinamide-adenine dinucleotide oxidase)” value [2] was “effective inhibitor”, the “inhibition of turnip peroxidase” value [3] was 71% and the “inhibition of yeast alcohol dehydrogenase” value [4] was 71%. The “inhibition of squash ascorbic acid oxidase” value [5] was 100%, the “inhibition of rat liver cyclophorase” value [6] was 93% and 70% and the “inhibition of pig heart D-amino acid oxidase” value [7] was 99%. For the same compound, the “inhibition of jack bean urease” value [8] was 99%, the “inhibition of plant lipoxidase-catalyzed oxidation and auto-oxidation of linoleate” value [9] was “well-known inhibitor” and the anti-caries effect [10] was “effective experimental anti-caries agent”. For the same compound, the “inhibition of aerobic and anaerobic glycolysis” value [11] was “markedly inhibited”, the “inhibition of endogenous and glucose dependent respiration” value [11] was “nearly as effectively inhibited” and the “inhibition of the same metabolic activities in cancer cells” value [12] was “similarly inhibited”. For the same compound, the solubility ([13]; dilute hydrochloric acid) was “insoluble”, the solubility ([13]; ethanol, methanol, ether, acetone, glycerol, propylene glycol, dilute alkali) was “soluble” and the solubility ([13]; hot water and chloroform) was “slightly soluble”.
